Laboratory results published in the supplement of paper PMC13380429.

Columns and labels:
Conditions in all cases: 72 h
Caco-2 [1] = test: cell viability relative to DMSO; higher = less toxic
Calu-3 [2] = test: as above
HepG2 [3] = test: as above
U2OS [4] = test: as above
Vero E6 [5] = test: as above
Caco-2 [6] = test: relative viability EC50 (midpoint between 100% and the lowest measured viability); higher = less toxic
Calu-3 [7] = test: as above
HepG2 [8] = test: as above
U2OS [9] = test: as above
Vero E6 [10] = test: as above
Caco-2 [11] = test: drug sensitivity score (DSS) for viability; higher = more toxic; extreme values may be limits of the assay
Calu-3 [12] = test: as above
HepG2 [13] = test: as above
U2OS [14] = test: as above
Vero E6 [15] = test: as above

Compound	cell viability (Caco-2 [1]; 1 nM) [%]	cell viability (Caco-2 [1]; 10 nM) [%]	cell viability (Caco-2 [1]; 100 nM) [%]	cell viability (Caco-2 [1]; 1000 nM) [%]	cell viability (Caco-2 [1]; 10000 nM) [%]	cell viability (Calu-3 [2]; 1 nM) [%]	cell viability (Calu-3 [2]; 10 nM) [%]	cell viability (Calu-3 [2]; 100 nM) [%]	cell viability (Calu-3 [2]; 1000 nM) [%]	cell viability (Calu-3 [2]; 10000 nM) [%]	cell viability (HepG2 [3]; 1 nM) [%]	cell viability (HepG2 [3]; 10 nM) [%]	cell viability (HepG2 [3]; 100 nM) [%]	cell viability (HepG2 [3]; 1000 nM) [%]	cell viability (HepG2 [3]; 10000 nM) [%]	cell viability (U2OS [4]; 1 nM) [%]	cell viability (U2OS [4]; 10 nM) [%]	cell viability (U2OS [4]; 100 nM) [%]	cell viability (U2OS [4]; 1000 nM) [%]	cell viability (U2OS [4]; 10000 nM) [%]	cell viability (Vero E6 [5]; 1 nM) [%]	cell viability (Vero E6 [5]; 10 nM) [%]	cell viability (Vero E6 [5]; 100 nM) [%]	cell viability (Vero E6 [5]; 1000 nM) [%]	cell viability (Vero E6 [5]; 10000 nM) [%]	relative viability EC50 (Caco-2 [6]) [µM]	relative viability EC50 (Calu-3 [7]) [µM]	relative viability EC50 (HepG2 [8]) [µM]	relative viability EC50 (U2OS [9]) [µM]	relative viability EC50 (Vero E6 [10]) [µM]	drug sensitivity score (Caco-2 [11])	drug sensitivity score (Calu-3 [12])	drug sensitivity score (HepG2 [13])	drug sensitivity score (U2OS [14])	drug sensitivity score (Vero E6 [15])
CN[C@@H](C)C(=O)N[C@H](C(=O)N1CCC[C@H]1c1nc(C(=O)c2ccc(F)cc2)cs1)C1CCCCC1 [LCL-161]	99.9	97.9	91.9	103	95.2	106	102	97.6	86.4	77.2	93.5	104	99.8	83.4	89.8	104	109	99.7	97.8	94	97.8	102	97.8	107	104	> 10	> 10	> 10	> 10	> 10	0	2	1.8	0	0
CCCC(CCC)C(=O)NCc1ccc2c(cnn2-c2ccccc2OC)c1 [M-25]	99.2	102	97.1	95.3	79.6	113	95.5	115	101	102	99.8	108	101	105	87	102	100	99.5	100	95.1	94.5	94.2	96.6	91.5	88.8	> 10	> 10	> 10	> 10	> 10	1.2	0	0	0	0
CO[C@H]1CC=C2CCN3CCC4=C(CC(=O)OC4)[C@]23C1 [NSC-9965]	100	99.6	101	105	108	101	102	94.3	101	111	99.9	95	100	100	104	101	105	98.2	106	108	92.5	95.8	95	91.6	105	> 10	> 10	> 10	> 10	> 10	0	0	0	0	0
O=c1cc(N2CCOCC2)oc2c1ccc1ccccc12 [NU-7026]	94.3	113	91	99.2	82.7	98.4	107	102	97.6	82.8	106	93.4	92.9	90.8	88	98.9	101	96.2	99.6	95.7	99	103	98.3	101	86.2	> 10	> 10	> 10	> 10	> 10	0.5	0.7	0.4	0	0.1
O=C(Nc1ccc2[nH]ccc2c1)c1ccccc1 [OAC2]	91.9	91.3	95.1	98.7	94.5	102	99	104	99.3	96.6	104	106	97.3	99.7	101	103	97.2	97.1	104	95.3	92.3	95.7	99.6	92.8	95.5	> 10	> 10	> 10	> 10	> 10	0	0	0	0	0
CC(C)Oc1ccc(-c2nc(-c3cccc4c3CC[C@H]4NCCC(=O)O)no2)cc1C#N [RP-001]	95	94.7	94.1	95.7	98.2	95.9	99.8	87.5	101	102	96.9	97.6	94.2	104	110	102	95.1	103	106	112	95	97.7	90.2	101	104	> 10	> 10	> 10	> 10	> 10	0	0	0	0	0
O=C(Nc1ccccc1F)N[C@H]1N=C(c2ccccc2)c2ccccc2NC1=O [RSV604]	92.5	107	97.2	102	85.2	94.2	90.5	99.2	102	89.8	109	110	95.9	96.5	109	98.5	98.5	98.5	105	100	95.1	101	95.8	95.3	92	> 10	> 10	> 10	> 10	> 10	0.1	0	0	0	0
O[C@H]1CC[C@H](Nc2nc(-c3ccccc3)nc3[nH]ccc23)CC1 [SLV-320]	102	94.4	102	102	102	99.5	93.9	99.5	90.8	102	92.8	106	94.9	99.2	91.7	99.5	94.4	97.7	95.7	96.9	104	109	101	99	91.4	> 10	> 10	> 10	> 10	> 10	0	0	0	0	0
C[C@H](Nc1cc(NS(=O)(=O)N2CCC2)nc(SCc2cccc(F)c2F)n1)[C@@H](O)CO [SRT3190]	103	91	93.3	96	101	104	97.1	99.9	89.9	98.5	97.6	90.1	91	111	96	98.4	95.2	100	93.2	94.5	102	100	95.2	98.5	96.4	> 10	> 10	> 10	> 10	> 10	0	0	0	0	0
CC(=O)N1CCC(C(=O)N(CCCN2CCC(Cc3ccc(C(N)=O)cc3)CC2)c2ccc(C)c(Cl)c2)CC1 [TAK-220]	85.2	95.1	93.5	102	98.3	100	101	98.3	101	97.9	99.9	87.2	94.1	94.5	98.6	97.3	99.3	99.4	99.9	95.3	113	101	106	92.4	106	> 10	> 10	> 10	> 10	> 10	0	0	0	0	0
COc1ccsc1CNCC[C@@]1(c2ccccn2)CCOC2(CCCC2)C1 [TRV130]	105	104	101	93	97.6	103	96.9	101	112	104	105	95.6	91.9	102	94.9	103	102	102	96.9	100	96.9	100	95.7	94.5	96.6	> 10	> 10	> 10	> 10	> 10	0	0	0	0	0
CCCCNc1ncc2c(-c3ccc(CN4CCN(C)CC4)cc3)cn([C@H]3CC[C@H](O)CC3)c2n1 [UNC2025]	88.5	103	97.3	95.5	33.6	98.5	99.7	100	87.1	34.2	88.6	94	92	54.7	5.2	98.4	103	97	60.3	0.3	95.3	101	100	73.3	34.6	2.62	1.75	1.02	1.21	1.16	4.3	5.7	10.5	10.5	7.2
O=C(NCC(=O)N1CCCCC1)Nc1ccc2nnsc2c1 [UNC2327]	95.3	102	95.4	105	95.4	95	97.5	90.8	103	99.3	87.1	93.7	103	99.7	98.1	99.9	106	96.3	99.1	99.8	97.5	103	98.7	101	104	> 10	> 10	> 10	> 10	> 10	0	0	0	0	0
c1cc2c3c(c1)c1c(n3CCNC2)CCCC1 [WAY-629]	113	90.6	100	90	97.1	110	83.8	104	106	85.7	88.5	95.4	81.1	93	90.9	101	100	95.3	93	95.9	100	99.7	102	98.8	92.4	> 10	> 10	> 10	> 10	> 10	0	0.1	0	0	0
